What follows are compounds tested against ADAMTS4 (Homo sapiens (Human), UniProt O75173) (assay: Selectivity assay for ADAMTS-7 modulators: ADAMTS4 (FRET substrate)). Conditions: ADAMTS4 (R&D 4307-AD) 50 nM, substrate Dabcyl-EEVKAKVQPY-Glu(Edans)-NH2 1 μM, 120 min, 32° C.
Type: biochemical
Summary of the method: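 Human ADAMTS4 with compound in DMSO, or DMSO control; reaction started by adding FRET substrate in reaction buffer. Fluorescence increase measured at substrate-specific wavelengths. IC50 derived from % inhibition of enzyme activity versus compound concentration.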

ADAMTS4, sequence (O75173 213-685): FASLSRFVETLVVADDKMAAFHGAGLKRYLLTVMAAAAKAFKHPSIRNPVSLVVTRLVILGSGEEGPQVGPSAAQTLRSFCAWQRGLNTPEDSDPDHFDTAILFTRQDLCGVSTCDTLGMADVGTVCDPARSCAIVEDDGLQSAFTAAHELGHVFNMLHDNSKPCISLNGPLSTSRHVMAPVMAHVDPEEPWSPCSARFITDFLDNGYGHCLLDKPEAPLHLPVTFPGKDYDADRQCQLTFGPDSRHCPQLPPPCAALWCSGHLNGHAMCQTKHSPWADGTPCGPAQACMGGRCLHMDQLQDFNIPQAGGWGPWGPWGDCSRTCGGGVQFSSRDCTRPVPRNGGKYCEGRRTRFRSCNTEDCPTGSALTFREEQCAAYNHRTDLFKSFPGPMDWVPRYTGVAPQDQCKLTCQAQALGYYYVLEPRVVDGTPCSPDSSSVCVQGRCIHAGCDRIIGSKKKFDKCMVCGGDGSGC

Structure (SMILES)	IC50 [µM]
O=C1NC(=O)C(CNC(=O)c2ccccc2-c2ccc(C(F)(F)F)cc2)(C2(F)CC2)N1 (stereo not drawn) [Example 255, Ent-N-{[4-(1-Fluorocyclopropyl)-2,5-Dioxoimidazolidin-4-Yl]Methyl}-4′-(Trifluoromethyl)[Biphenyl]-2-Carboxamide]	10
O=C1NC(=O)C(CNC(=O)c2ccccc2-c2ccc(C(F)(F)F)cc2)(c2ccnn2C(F)F)N1 (stereo not drawn) [Example 261, Ent-N-({4-[1-(Difluoromethyl)-1H-Pyrazol-5-Yl]-2,5-Dioxoimidazolidin-4-Yl}Methyl)-4′-(Trifluoromethyl)[Biphenyl]-2-Carboxamide]	> 50
O=C1NC(=O)C(CNC(=O)c2ccccc2-c2ccc(C(F)(F)F)nc2)(c2ncsc2C2CC2)N1 (stereo not drawn) [Example 274, Ent-N-{[4-(5-Cyclopropyl-1,3-Thiazol-4-Yl)-2,5-Dioxoimidazolidin-4-Yl]Methyl}-2-[6-(Trifluoromethyl)Pyridin-3-Yl]Benzamide]	3.8
O=C1NC(=O)C(CNC(=O)c2ccccc2-c2ccc(C(F)(F)F)nc2)(c2cscn2)N1 (stereo not drawn) [Example 277, Ent-N-{[2,5-Dioxo-4-(1,3-Thiazol-4-Yl)Imidazolidin-4-Yl]Methyl}-2-[6-(Trifluoromethyl)Pyridin-3-Yl]Benzamide]	16
O=C1NC(=O)C(CNC(=O)c2ccc(F)c(F)c2-c2ccc(C(F)(F)F)cc2)(c2cscn2)N1 (stereo not drawn) [Example 278, Ent-N-{[2,5-Dioxo-4-(1,3-Thiazol-4-Yl)Imidazolidin-4-Yl]Methyl}-5,6-Difluoro-4′-(Trifluoromethyl)[Biphenyl]-2-Carboxamide]	8.6
O=C1NC(=O)C(CNC(=O)c2ccccc2-c2ccc(C(F)(F)F)cc2)(C2(Cl)CC2)N1 (stereo not drawn) [Example 280, Ent-N-{[4-(1-Chlorocyclopropyl)-2,5-Dioxoimidazolidin-4-Yl]Methyl}-4′-(Trifluoromethyl)[Biphenyl]-2-Carboxamide]	7.1
O=C1NC(=O)[C@](CNC(=O)c2ccc(F)cc2-c2ccc(C(F)(F)F)nc2)(C2CC2)N1 [Example 290, N-{[(4R)-4-Cyclopropyl-2,5-Dioxoimidazolidin-4-Yl]Methyl}-4-Fluoro-2-[6-(Trifluoromethyl)Pyridin-3-Yl]Benzamide]	21
Cn1cncc1C1(CNC(=O)c2ccccc2-c2ccc(C(F)(F)F)cc2)NC(=O)NC1=O (stereo not drawn) [Example 297, Ent-N-{[4-(1-Methyl-1H-Imidazol-5-Yl)-2,5-Dioxoimidazolidin-4-Yl]Methyl}-4′-(Trifluoromethyl)[Biphenyl]-2-Carboxamide]	4.1
Cc1cc(C2(CNC(=O)c3ccccc3-c3ccc(C(F)(F)F)cc3)NC(=O)NC2=O)n(C)n1 (stereo not drawn) [Example 302, Ent-N-{[4-(1,3-Dimethyl-1H-Pyrazol-5-Yl)-2,5-Dioxoimidazolidin-4-Yl]Methyl}-4′-(Trifluoromethyl)[Biphenyl]-2-Carboxamide]	7.6

Further lines, results first:

IC50 [µM]	Structure (SMILES)
11	O=C1NC(=O)C(CNC(=O)c2ccccc2-c2ccc(C(F)(F)F)cc2)(c2ncsc2C(F)(F)F)N1 (stereo not drawn) [Example 264, Ent-N-({2,5-Dioxo-4-[5-(Trifluoromethyl)-1,3-Thiazol-4-Yl]Imidazolidin-4-Yl}Methyl)-4′-(Trifluoromethyl)[Biphenyl]-2-Carboxamide]
10	O=C1NC(=O)C(CNC(=O)c2cc(F)ccc2-c2ccc(C(F)(F)F)cc2)(c2ncsc2C(F)(F)F)N1 (stereo not drawn) [Example 266, Ent-N-({2,5-Dioxo-4-[5-(Trifluoromethyl)-1,3-Thiazol-4-Yl]Imidazolidin-4-Yl}Methyl)-4-Fluoro-4′-(Trifluoromethyl)[Biphenyl]-2-Carboxamide]
27	O=C1NC(=O)C(CNC(=O)c2ccc(F)cc2-c2ccc(C(F)(F)F)cc2)(c2ncsc2C(F)(F)F)N1 (stereo not drawn) [Example 268, Ent-N-({2,5-Dioxo-4-[5-(Trifluoromethyl)-1,3-Thiazol-4-Yl]Imidazolidin-4-Yl}Methyl)-5-Fluoro-4′-(Trifluoromethyl)[Biphenyl]-2-Carboxamide]
2.7	O=C1NC(=O)C(CNC(=O)c2ccccc2-c2ccc(C(F)(F)F)cc2)(c2ncsc2C2CC2)N1 (stereo not drawn) [Example 271, Ent-N-{[4-(5-Cyclopropyl-1,3-Thiazol-4-Yl)-2,5-Dioxoimidazolidin-4-Yl]Methyl}-4′-(Trifluoromethyl)[Biphenyl]-2-Carboxamide]
26.8	O=C1NC(=O)C(CNC(=O)c2ccc(F)cc2-c2ccc(C(F)(F)F)cc2)(c2ncsc2C2CC2)N1 (stereo not drawn) [Example 273, Ent-N-{[4-(5-Cyclopropyl-1,3-Thiazol-4-Yl)-2,5-Dioxoimidazolidin-4-Yl]Methyl}-5-Fluoro-4′-(Trifluoromethyl)[Biphenyl]-2-Carboxamide]
9.5	O=C1NC(=O)C(CNC(=O)c2ccc(F)cc2-c2ccc(C(F)(F)F)cc2)(c2ccnn2C(F)F)N1 (stereo not drawn) [Example 296, Ent-N-({4-[1-(Difluoromethyl)-1H-Pyrazol-5-Yl]-2,5-Dioxoimidazolidin-4-Yl}Methyl)-5-Fluoro-4′-(Trifluoromethyl)[Biphenyl]-2-Carboxamide]

From patent publication US12398120B2, “Substituted hydantoinamides as ADAMTS7 antagonists” (BAYER AKTIENGESELLSCHAFT, priority 2019, dated 2025)
